Laboratory results: patent US20120148492A1, “BISPHOSPHONIC ACID DERIVATIVE AND COMPOUND THEREOF LABELED WITH RADIOACTIVE METAL NUCLIDE” (FUJIFILM RI PHARMA CO., LTD., priority 2009, published 2012)

Assays:
[1] = In vivo distribution of 68Ga-DOTA-alendronate in rats; parameters: species or system rat; conditions: for Blood radioactivity / Bone radioactivity / Kidney radioactivity / Large intestine radioactivity / Liver radioactivity / Muscle radioactivity / Small intestine radioactivity / Spleen radioactivity / Bone/blood: Wistar male rats, 120 minutes after drug administration; for Blood radioactivity / Bone radioactivity / Kidney radioactivity / Large intestine radioactivity / Liver radioactivity / Muscle radioactivity / Small intestine radioactivity / Spleen radioactivity: tail vein; for Bone/blood: ratio of radioactivity accumulation
Protocol: To groups, each containing three Wistar male rats, 0.2 mL of each of 68Ga-DOTA-alendronate and 99mTc-MDP (product name: Techne MDP injection, manufactured by FUJIFILM RI Pharma Co., Ltd., 740 MBq/2 mL), each diluted to 12.3 to 19.8 MBq/mL, was administered into the rat tail vein under anesthesia. Then, 120 minutes after administration, the rats were sacrificed, organs were excised, and the weight and the radioactivity of each organ were measured. The measurement values were calculated as % I.D./g tissue weight, which is the radioactivity in each tissue divided by the tissue weight, as the ratio with respect to the dose.

[2] = Rat in vivo distribution experiment; conditions: for Blood radioactivity / Bone radioactivity / Kidney radioactivity / Large intestine radioactivity / Liver radioactivity / Muscle radioactivity / Small intestine radioactivity / Spleen radioactivity / Bone/blood: Wistar male rats; for Blood radioactivity / Bone radioactivity / Kidney radioactivity / Large intestine radioactivity / Liver radioactivity / Muscle radioactivity / Small intestine radioactivity / Spleen radioactivity: tail vein; for Bone/blood: ratio of radioactivity accumulation
Protocol: Subsequently, 15, 30, 60, 120, and 240 minutes after administration, the rats were sacrificed, organs were excised, and the weight and the radioactivity of each organ were measured. The measurement values were calculated as % I.D./g tissue weight, which is the radioactivity in each tissue divided by the tissue weight, as the ratio with respect to the dose.

[3] = Wistar male rats, 18.5 to 37 MBq tail vein, from 60 minutes after administration
Protocol: To Wistar male rats, 68Ga-NOTA-alendronate and 99m Tc-MDP were each administered into the rat tail vein in amounts of 18.5 to 37 MBq under anesthesia. Then, 60 and 180 minutes after administration, images were taken by PET/CT or a SPECT camera.

[4] = tested on: local bone metastasis model (human prostate cancer-derived cells transplanted into the right tibia); conditions: local bone metastasis model mouse, approximately 6.0 MBq, from 60 minutes after administration
Protocol: Human prostate cancer-derived cells were transplanted into the right tibia of a mouse to produce a local bone metastasis model. To this model mouse, approximately 6.0 MBq of 68Ga-NOTA-alendronate was administered into the […] under anesthesia. An image was taken by PET/CT 60 minutes after administration.

Compound: O=C([O-])CN1CCN(CC(=O)[O-])CCN(CC(=O)NCCCC(O)(P(=O)(O)O)P(=O)(O)O)CCN(CC(=O)[O-])CC1.[68Ga+3] [68Ga-DOTA-alendronate]
- radioactivity accumulation in bone ([1]; 120 minutes after administration, as 99mTc-MDP did): high radioactivity accumulation in bone
- Blood radioactivity [1]: 0.024 % I.D./g
- Bone radioactivity [1]: 4.54 % I.D./g
- Kidney radioactivity [1]: 0.26 % I.D./g
- Large intestine radioactivity [1]: 0.055 % I.D./g
- Liver radioactivity [1]: 0.018 % I.D./g
- Muscle radioactivity [1]: 0.005 % I.D./g
- Small intestine radioactivity [1]: 0.522 % I.D./g
- Spleen radioactivity [1]: 0.020 % I.D./g
- clearance from blood ([1]; rat, versus 99mTc-MDP): delayed clearance from blood
- Bone/blood [1]: 189
- ratio of radioactivity accumulation in bone/blood ([1]; two hours after administration, versus 99mTc-MDP): no improvement

Compound: O=C([O-])CN1CCN(CC(=O)[O-])CCN(C(CCC(=O)NCCCC(O)(P(=O)(O)O)P(=O)(O)O)C(=O)[O-])CC1.[68Ga+3] (stereo not drawn) [68Ga-NOTA-alendronate]
- Blood radioactivity ([2]; 15 min after administration): 0.399 % I.D./g
- Bone radioactivity ([2]; 15 min after administration): 3.64 % I.D./g
- Kidney radioactivity ([2]; 15 min after administration): 3.43 % I.D./g
- Large intestine radioactivity ([2]; 15 min after administration): 0.132 % I.D./g
- Liver radioactivity ([2]; 15 min after administration): 0.081 % I.D./g
- Muscle radioactivity ([2]; 15 min after administration): 0.085 % I.D./g
- Small intestine radioactivity ([2]; 15 min after administration): 0.121 % I.D./g
- Spleen radioactivity ([2]; 15 min after administration): 0.103 % I.D./g
- Blood radioactivity ([2]; 30 min after administration): 0.145 % I.D./g
- Bone radioactivity ([2]; 30 min after administration): 4.17 % I.D./g
- Kidney radioactivity ([2]; 30 min after administration): 0.89 % I.D./g
- Large intestine radioactivity ([2]; 30 min after administration): 0.054 % I.D./g
- Liver radioactivity ([2]; 30 min after administration): 0.039 % I.D./g
- Muscle radioactivity ([2]; 30 min after administration): 0.033 % I.D./g
- Small intestine radioactivity ([2]; 30 min after administration): 0.070 % I.D./g
- Spleen radioactivity ([2]; 30 min after administration): 0.046 % I.D./g
- Blood radioactivity ([2]; 60 min after administration): 0.030 % I.D./g
- Bone radioactivity ([2]; 60 min after administration): 4.59 % I.D./g
- Kidney radioactivity ([2]; 60 min after administration): 0.43 % I.D./g
- Large intestine radioactivity ([2]; 60 min after administration): 0.023 % I.D./g
- Liver radioactivity ([2]; 60 min after administration): 0.020 % I.D./g
- Muscle radioactivity ([2]; 60 min after administration): 0.008 % I.D./g
- Small intestine radioactivity ([2]; 60 min after administration): 0.056 % I.D./g
- Spleen radioactivity ([2]; 60 min after administration): 0.021 % I.D./g
- Blood radioactivity ([2]; 120 min after administration): 0.005 % I.D./g
- Bone radioactivity ([2]; 120 min after administration): 5.19 % I.D./g
- Kidney radioactivity ([2]; 120 min after administration): 0.37 % I.D./g
- Large intestine radioactivity ([2]; 120 min after administration): 0.019 % I.D./g
- Liver radioactivity ([2]; 120 min after administration): 0.015 % I.D./g
- Muscle radioactivity ([2]; 120 min after administration): 0.004 % I.D./g
- Small intestine radioactivity ([2]; 120 min after administration): 0.073 % I.D./g
- Spleen radioactivity ([2]; 120 min after administration): 0.014 % I.D./g
- Blood radioactivity ([2]; 240 min after administration): 0.003 % I.D./g
- Bone radioactivity ([2]; 240 min after administration): 4.75 % I.D./g
- Kidney radioactivity ([2]; 240 min after administration): 0.28 % I.D./g
- Large intestine radioactivity ([2]; 240 min after administration): 0.077 % I.D./g
- Liver radioactivity ([2]; 240 min after administration): 0.016 % I.D./g
- Muscle radioactivity ([2]; 240 min after administration): 0.002 % I.D./g
- Small intestine radioactivity ([2]; 240 min after administration): 0.011 % I.D./g
- Spleen radioactivity ([2]; 240 min after administration): 0.012 % I.D./g
- ratio of radioactivity accumulation in bone to that in blood ([2]; compared to 99mTc-MDP, from an early stage after administration): dominantly improved
- accumulation in bone ([2]; compared to 99mTc-MDP, rat): equivalent value of accumulation in bone
- clearance of radioactivity from blood ([2]; compared to 99mTc-MDP, rat): more rapid clearance of radioactivity from blood
- non-specific accumulation in other organs ([2]; rat, similar amount to that of 99mTc-MDP): almost no non-specific accumulation
- Bone/blood ([2]; 15 min after administration): 9
- Bone/blood ([2]; 30 min after administration): 29
- Bone/blood ([2]; 60 min after administration): 155
- Bone/blood ([2]; 120 min after administration): 958
- Bone/blood ([2]; 240 min after administration): 1696
- visualization of bone in images [3]: bone is clearly visualized
- visualization of bone and bone lesion in PET/CT image [4]: bone and the arrowed bone lesion are clearly visualized

Compound: O.O.O=P([O-])([O-])CP(=O)([O-])[O-].[99Tc+4] [99mTc-MDP]
- Blood radioactivity ([2]; 15 min after administration): 0.415 % I.D./g
- Bone radioactivity ([2]; 15 min after administration): 3.25 % I.D./g
- Kidney radioactivity ([2]; 15 min after administration): 2.84 % I.D./g
- Large intestine radioactivity ([2]; 15 min after administration): 0.121 % I.D./g
- Liver radioactivity ([2]; 15 min after administration): 0.086 % I.D./g
- Muscle radioactivity ([2]; 15 min after administration): 0.085 % I.D./g
- Small intestine radioactivity ([2]; 15 min after administration): 0.134 % I.D./g
- Spleen radioactivity ([2]; 15 min after administration): 0.107 % I.D./g
- Blood radioactivity ([2]; 30 min after administration): 0.171 % I.D./g
- Bone radioactivity ([2]; 30 min after administration): 3.41 % I.D./g
- Kidney radioactivity ([2]; 30 min after administration): 1.02 % I.D./g
- Large intestine radioactivity ([2]; 30 min after administration): 0.062 % I.D./g
- Liver radioactivity ([2]; 30 min after administration): 0.048 % I.D./g
- Muscle radioactivity ([2]; 30 min after administration): 0.036 % I.D./g
- Small intestine radioactivity ([2]; 30 min after administration): 0.093 % I.D./g
- Spleen radioactivity ([2]; 30 min after administration): 0.056 % I.D./g
- Blood radioactivity ([2]; 60 min after administration): 0.044 % I.D./g
- Bone radioactivity ([2]; 60 min after administration): 3.97 % I.D./g
- Kidney radioactivity ([2]; 60 min after administration): 0.62 % I.D./g
- Large intestine radioactivity ([2]; 60 min after administration): 0.020 % I.D./g
- Liver radioactivity ([2]; 60 min after administration): 0.029 % I.D./g
- Muscle radioactivity ([2]; 60 min after administration): 0.010 % I.D./g
- Small intestine radioactivity ([2]; 60 min after administration): 0.081 % I.D./g
- Spleen radioactivity ([2]; 60 min after administration): 0.027 % I.D./g
- Blood radioactivity ([2]; 120 min after administration): 0.018 % I.D./g
- Bone radioactivity ([2]; 120 min after administration): 4.07 % I.D./g
- Kidney radioactivity ([2]; 120 min after administration): 0.36 % I.D./g
- Large intestine radioactivity ([2]; 120 min after administration): 0.053 % I.D./g
- Liver radioactivity ([2]; 120 min after administration): 0.022 % I.D./g
- Muscle radioactivity ([2]; 120 min after administration): 0.005 % I.D./g
- Small intestine radioactivity ([2]; 120 min after administration): 0.299 % I.D./g
- Spleen radioactivity ([2]; 120 min after administration): 0.019 % I.D./g
- Blood radioactivity ([2]; 240 min after administration): 0.012 % I.D./g
- Bone radioactivity ([2]; 240 min after administration): 4.25 % I.D./g
- Kidney radioactivity ([2]; 240 min after administration): 0.35 % I.D./g
- Large intestine radioactivity ([2]; 240 min after administration): 0.467 % I.D./g
- Liver radioactivity ([2]; 240 min after administration): 0.019 % I.D./g
- Muscle radioactivity ([2]; 240 min after administration): 0.004 % I.D./g
- Small intestine radioactivity ([2]; 240 min after administration): 0.056 % I.D./g
- Spleen radioactivity ([2]; 240 min after administration): 0.019 % I.D./g
- Bone/blood ([2]; 15 min after administration): 8
- Bone/blood ([2]; 30 min after administration): 20
- Bone/blood ([2]; 60 min after administration): 91
- Bone/blood ([2]; 120 min after administration): 228
- Bone/blood ([2]; 240 min after administration): 358
- Blood radioactivity [1]: 0.021 % I.D./g
- Bone radioactivity [1]: 4.38 % I.D./g
- Kidney radioactivity [1]: 0.44 % I.D./g
- Large intestine radioactivity [1]: 0.015 % I.D./g
- Liver radioactivity [1]: 0.024 % I.D./g
- Muscle radioactivity [1]: 0.007 % I.D./g
- Small intestine radioactivity [1]: 0.224 % I.D./g
- Spleen radioactivity [1]: 0.020 % I.D./g
- Bone/blood [1]: 209
